Assay results reported in PMC9181126, “Design, Synthesis, Molecular Docking Analysis and Biological Evaluations of 4-[(Quinolin-4-yl)amino]benzamide Derivatives as Novel Anti-Influenza Virus Agents” (International Journal of Molecular Sciences, 2022).

Key:
[1] = in vitro; type: cell-based, canine; details: dog
Procedure: (§1) The 3-(4,5-dimethylthiazol-2-yl)-2,5-diphenyltetrazolium bromide (MTT) method was performed to assess the cytotoxicity of target compounds in MDCK cells and HEK293T cells. Firstly, MDCK cells or HEK293T cells were seeded into the 96-well plate. Then, the media containing test compounds replaced the growth media after 48 h. Incubate MDCK cells or HEK293T cells with test compounds for 72 h at 37 °C in a humidified 5% CO2 incubator. Later, MTT solution (5 mg/mL in PBS) was added into each well and plates were incubated for 4 h at 37 °C. Then, add a solubilization solution to lyse cells. Finally, absorbance was read at 620 nm using an ELISA plate reader (Tecan Sunrise) after 3 h of further incubation at 37 °C. We set the values obtained from the wells treated with only DMSO as 100% of viable cells.

[2] = tested on: MDCK cells; assay: in vitro; type: cell-based, canine; details: dog, 72 h
Procedure: as §1

[3] = tested on: influenza virus A/WSN/33 (H1N1); assay: Plaque inhibition assay in MDCK cells; type: cell-based; details: MDCK, read-out: Plaque Inhibition Assay (A/WSN/33, H1N1) Inhibition Rate; for inhibition at 100 µM: concentration 100 µM
[4] = tested on: influenza virus A/WSN/33 (H1N1); assay: microbe, parasite or virus in culture; type: cell-based; details: MDCK, 72 h; for inhibition at 12.5 µM / inhibition at 25 µM / inhibition at 50 µM / inhibition at 100 µM: H1N1|WSN, read-out: Antiviral activity in CPE assay; for EC50: read-out: Cytopathic Effect Assay (A/WSN/33, H1N1) EC50
[5] = in vitro; type: cell-based; details: human
Procedure: as §1

[6] = tested on: HEK293T cells; assay: in vitro; type: cell-based; details: human, 72 h
Procedure: as §1

[7] = tested on: PA-PB1 endonuclease; parameters: method as in supplement 1-7; details: training and test set compounds collected from literature; ref supplement 1-7; read-out: IC50 value Experimental (PA-PB1 endonuclease inhibitors); cited from earlier work
[8] = tested on: PA-PB1 endonuclease; assay: Experimental PA-PB1 inhibitory activity of literature inhibitors (training and test set); type: biochemical, influenza virus; details: class of the experimental IC50

CCOc1ccc(N2CCN(C(=O)c3ccc(Nc4ccnc5cc(C(F)(F)F)ccc45)cc3)CC2)cc1 [Compound G18, [4-(4-Ethoxyphenyl)piperazin-1-yl]{4-{[7-(trifluoromethyl)quinolin-4-yl]amino}phenyl}methanone]
CC50 at 72 h [1]: > 100 µM | MDCK cells survival rate ([2]; 12.5 µmol·L−1): 112.99±2.36% | MDCK cells survival rate ([2]; 25 µmol·L−1): 111.55±2.20% | MDCK cells survival rate ([2]; 50 µmol·L−1): 138.28±6.89% | MDCK cells survival rate ([2]; 100 µmol·L−1): 104.99±4.01% | inhibition at 25 µM ([3]; concentration 25 µM): 16.3% | inhibition at 12.5 µM [4]: 42.8 ± 0.57% | inhibition at 25 µM [4]: 39.5 ± 1.72% | inhibition at 50 µM [4]: 38.7 ± 4.29% | inhibition at 100 µM [4]: 35.5 ± 9.67% | EC50 [4]: > 100 µM | CC50 at 72 h [5]: > 100 µM | HEK293T cells survival rate ([6]; 3.125 µmol·L−1): 98.42±9.98% | HEK293T cells survival rate ([6]; 6.25 µmol·L−1): 87.82±9.55% | HEK293T cells survival rate ([6]; 12.5 µmol·L−1): 70.43±2.98% | HEK293T cells survival rate ([6]; 25 µmol·L−1): 65.43±6.72% | HEK293T cells survival rate ([6]; 50 µmol·L−1): 72.68±1.96% | HEK293T cells survival rate ([6]; 100 µmol·L−1): 86.90±1.67% | melting point: 210 to 212.3 °C

COc1ccccc1OCCNC(=O)c1ccc(Nc2ccnc3cc(C)ccc23)cc1 [Compound G21, N-[2-(2-Methoxyphenoxy)ethyl]-4-[(7-methylquinolin-4-yl)amino]benzamide]
CC50 at 72 h [1]: > 100 µM | MDCK cells survival rate ([2]; 12.5 µmol·L−1): 83.41±3.67% | MDCK cells survival rate ([2]; 25 µmol·L−1): 80.18±7.27% | MDCK cells survival rate ([2]; 50 µmol·L−1): 93.28±9.93% | MDCK cells survival rate ([2]; 100 µmol·L−1): 88.84±3.59% | inhibition at 100 µM [3]: 11.5% | inhibition at 12.5 µM [4]: 43 ± 7.31% | inhibition at 25 µM [4]: 39.8 ± 7.16% | inhibition at 50 µM [4]: 39.8 ± 6.58% | inhibition at 100 µM [4]: 50.1 ± 5.45% | EC50 [4]: > 100 µM | CC50 at 72 h [5]: > 100 µM | HEK293T cells survival rate ([6]; 3.125 µmol·L−1): 117.39±1.03% | HEK293T cells survival rate ([6]; 6.25 µmol·L−1): 103.95±2.65% | HEK293T cells survival rate ([6]; 12.5 µmol·L−1): 105.56±6.72% | HEK293T cells survival rate ([6]; 25 µmol·L−1): 102.64±2.91% | HEK293T cells survival rate ([6]; 50 µmol·L−1): 110.67±8.55% | HEK293T cells survival rate ([6]; 100 µmol·L−1): 50.09±0.70% | melting point: 209.6 to 210.6 °C

COc1ccccc1OCCNC(=O)c1ccc(Nc2ccnc3ccc(Br)cc23)cc1 [Compound G24, N-[2-(2-Methoxyphenoxy)ethyl]-4-[(6-bromoquinolin-4-yl)amino]benzamide]
CC50 at 72 h [1]: > 100 µM | MDCK cells survival rate ([2]; 12.5 µmol·L−1): 97.97±11.82% | MDCK cells survival rate ([2]; 25 µmol·L−1): 71.98±13.89% | MDCK cells survival rate ([2]; 50 µmol·L−1): 87.44±3.70% | MDCK cells survival rate ([2]; 100 µmol·L−1): 105.38±8.08% | inhibition at 100 µM [3]: < 10% | inhibition at 12.5 µM [4]: 21 ± 2.86% | inhibition at 25 µM [4]: 19.2 ± 0.69% | inhibition at 50 µM [4]: 19.2 ± 0.42% | inhibition at 100 µM [4]: 18.4 ± 1.27% | EC50 [4]: > 100 µM | CC50 at 72 h [5]: > 100 µM | HEK293T cells survival rate ([6]; 3.125 µmol·L−1): 113.31±4.70% | HEK293T cells survival rate ([6]; 6.25 µmol·L−1): 96.70±5.40% | HEK293T cells survival rate ([6]; 12.5 µmol·L−1): 91.88±3.61% | HEK293T cells survival rate ([6]; 25 µmol·L−1): 91.06±10.23% | HEK293T cells survival rate ([6]; 50 µmol·L−1): 69.53±3.05% | HEK293T cells survival rate ([6]; 100 µmol·L−1): 72.95±4.52% | melting point: 240.5 to 241.3 °C

COc1ccccc1OCCNC(=O)c1ccc(Nc2ccnc3ccc(Cl)cc23)cc1 [Compound G25, N-[2-(2-Methoxyphenoxy)ethyl]-4-[(6-chloroquinolin-4-yl)amino]benzamide]
CC50 at 72 h [1]: > 100 µM | MDCK cells survival rate ([2]; 12.5 µmol·L−1): 92.58±5.23% | MDCK cells survival rate ([2]; 25 µmol·L−1): 85.96±5.73% | MDCK cells survival rate ([2]; 50 µmol·L−1): 86.83±3.19% | MDCK cells survival rate ([2]; 100 µmol·L−1): 79.32±11.90% | inhibition at 100 µM [3]: 0% | inhibition at 12.5 µM [4]: 26.1 ± 0.67% | inhibition at 25 µM [4]: 25.7 ± 2.29% | inhibition at 50 µM [4]: 22.5 ± 1.29% | inhibition at 100 µM [4]: 22.3 ± 0.4% | EC50 [4]: > 100 µM | CC50 at 72 h [5]: > 100 µM | HEK293T cells survival rate ([6]; 3.125 µmol·L−1): 104.71±1.87% | HEK293T cells survival rate ([6]; 6.25 µmol·L−1): 103.50±6.33% | HEK293T cells survival rate ([6]; 12.5 µmol·L−1): 99.13±1.95% | HEK293T cells survival rate ([6]; 25 µmol·L−1): 65.73±7.64% | HEK293T cells survival rate ([6]; 50 µmol·L−1): 101.61±11.65% | HEK293T cells survival rate ([6]; 100 µmol·L−1): 110.35±11.54% | melting point: 247.7 to 248.4 °C

Cc1cc(-c2ccccc2)n2nc(C(=O)Nc3ccccc3C(N)=O)nc2n1 [Compound H05]
IC50 [7]: 11 µM | Activity scale Experimental [8]: +++ (+++, IC50 10 to 100 μM (active))

Cc1cc(-c2ccccc2)n2nc(C(=O)Nc3sc4c(c3C(=O)Nc3ccccn3)CCCCC4)nc2n1 [Compound H06]
IC50 [7]: 23 µM | Activity scale Experimental [8]: +++ (+++, IC50 10 to 100 μM (active))

Cc1cc(-c2ccccc2)n2nc(C(=O)Nc3sc4c(c3C(=O)O)CCCCC4)nc2n1 [Compound H08]
IC50 [7]: 19 µM | Activity scale Experimental [8]: +++ (+++, IC50 10 to 100 μM (active))

Cc1cc(-c2ccccc2)n2nc(C(=O)Nc3nc4ccccc4s3)nc2n1 [Compound H09]
IC50 [7]: 21 µM | Activity scale Experimental [8]: +++ (+++, IC50 10 to 100 μM (active))

COc1ccccc1C(=O)Nc1sc2c(c1C(=O)Nc1ccccn1)CCCCC2 [Compound H11]
IC50 [7]: 22 µM | Activity scale Experimental [8]: +++ (+++, IC50 10 to 100 μM (active))

O=C(Nc1sc2c(c1C(=O)Nc1ccc(Cl)cc1)CCCCC2)c1ccccc1O [Compound H12]
IC50 [7]: 18 µM | Activity scale Experimental [8]: +++ (+++, IC50 10 to 100 μM (active))

O=C(Nc1sc2c(c1C(=O)Nc1ccccn1)CCCCC2)c1ccc(O)cc1 [Compound H13]
IC50 [7]: 26 µM | Activity scale Experimental [8]: +++ (+++, IC50 10 to 100 μM (active))

Cc1cc(-c2ccccc2)nc2c(C(=O)Nc3sc4c(c3C(N)=O)CCC4)cnn12 [Compound H15]
IC50 [7]: 44.8 µM | Activity scale Experimental [8]: +++ (+++, IC50 10 to 100 μM (active))

NC(=O)c1c(NC(=O)c2cnn3c(C(F)F)cc(-c4ccccc4)nc23)sc2c1CCC2 [Compound H16]
IC50 [7]: 25.4 µM | Activity scale Experimental [8]: +++ (+++, IC50 10 to 100 μM (active))

CCCCOc1ccc(C(=O)Nc2nc3n(n2)C(c2ccccc2)C=C(C)N3)cc1 (stereo not drawn) [Compound H18]
IC50 [7]: 37 µM | Activity scale Experimental [8]: +++ (+++, IC50 10 to 100 μM (active))
